≈ marks a conversion by molar mass, not a printed value. Calls of active or inactive are those of the source. The rule behind the calls is not given here.
Columns and labels:
Aspergillus fumigatus = assay: Antimicrobial activity against Aspergillus fumigatus by NCCLS method; assay type: functional, organism-based
Vero = assay: Cytotoxicity against african green monkey Vero cells after 48 hrs by Neutral Red assay; assay type: cell-based; details: Chlorocebus sabaeus
[1] = Selectivity index, ratio of IC50 for human HepG2 cells to IC50 for Plasmodium falciparum W2; assay type: toxicity, cell-based; details: read-out: Ratio IC50
LLC-PK1 = assay: Cytotoxicity against a pig LLC-PK1 cells after 48 hrs by Neutral Red assay; assay type: cell-based; details: Sus scrofa, LLC-PK1, 48 h
Plasmodium falciparum [2] = assay: Antimicrobial activity against Plasmodium falciparum D6 after 72 hrs by LDH activity assay; assay type: functional, organism-based
HepG2 = assay: Cytotoxicity against human HepG2 cells after 48 hrs by Neutral Red assay; assay type: cell-based; details: HepG2, 48 h
Candida albicans = assay: Antimicrobial activity against Candida albicans by NCCLS method; assay type: functional, organism-based
Plasmodium falciparum [3] = assay: Antimicrobial activity against Plasmodium falciparum W2 after 72 hrs by LDH activity assay; assay type: functional, organism-based
Staphylococcus aureus [4] = assay: Antimicrobial activity against methicillin-resistant Staphylococcus aureus by NCCLS method; assay type: functional, organism-based
[5] = Selectivity index, ratio of IC50 for human HepG2 cells to IC50 for Plasmodium falciparum D6; assay type: toxicity, cell-based; details: read-out: Ratio IC50
Staphylococcus aureus [6] = assay: Antimicrobial activity against Staphylococcus aureus by NCCLS method; assay type: functional, organism-based
Cryptococcus neoformans = assay: Antimicrobial activity against Cryptococcus neoformans by NCCLS method; assay type: functional, organism-based
[7] = Selectivity index, ratio of IC50 for pig LLC-PK1 cells to IC50 for Plasmodium falciparum D6; assay type: toxicity, cell-based; details: read-out: Ratio IC50
[8] = Selectivity index, ratio of IC50 for african green monkey Vero cells to IC50 for Plasmodium falciparum W2; assay type: toxicity, cell-based; details: read-out: Ratio IC50
Leishmania donovani = assay: Antileishmanial activity against Leishmania donovani promastigotes after 48 hrs by Alamar Blue assay; assay type: functional, organism-based; details: for IC50: read-out: IC50
[9] = Selectivity index, ratio of IC50 for pig LLC-PK1 cells to IC50 for Plasmodium falciparum W2; assay type: toxicity, cell-based; details: read-out: Ratio IC50
[10] = Selectivity index, ratio of IC50 for african green monkey Vero cells to IC50 for Plasmodium falciparum D6; assay type: toxicity, cell-based; details: read-out: Ratio IC50
Plasmodium falciparum [11] = assay: Antimicrobial activity against Plasmodium falciparum NF54; assay type: functional
[12] = Plasmodium falciparum, D6, 72 h, read-out: IC50
[13] = Plasmodium falciparum, W2, 72 h, read-out: IC50

Row | SMILES | Activity (Aspergillus fumigatus) | IC50 (Vero) | selectivity ratio [1] | IC50 (LLC-PK1) | IC50 (Plasmodium falciparum [2]; [12]) | IC50 (HepG2) | Activity (Candida albicans) | IC50 (Plasmodium falciparum [3]; [13]) | IC50 (Staphylococcus aureus [4]) | MBC (Staphylococcus aureus [4]) | MIC (Staphylococcus aureus [4]) | selectivity ratio [5] | MBC (Staphylococcus aureus [6]) | MIC (Staphylococcus aureus [6]) | IC50 (Cryptococcus neoformans) | MBC (Cryptococcus neoformans) | MIC (Cryptococcus neoformans) | selectivity ratio [7] | IC50 (Leishmania donovani; Leishmania donovani, 48 h) | IC50 (Staphylococcus aureus [6]) | further results
1 | Nc1nccc(-c2cn(Cc3ccc(Cl)s3)c3ccc(Br)cc23)n1 | inactive | > 60 µM | > 5.9 | > 60 µM | 13.6 µM | > 60 µM | inactive | 10.1 µM | Not Active | inactive | inactive | > 4.4 | inactive | inactive | 19.9 µM | 47.7 µM (≈ 20 µg/mL) | 47.7 µM (≈ 20 µg/mL) | > 4.4 | 29.1 µM |  | IC50 (Staphylococcus aureus [6]; Staphylococcus aureus, read-out: IC50): 40.5 µM; selectivity ratio [8]: > 5.9; IC90 (Leishmania donovani; Leishmania donovani, 48 h): 41.2 µM; selectivity ratio [9]: > 5.9; selectivity ratio [10]: > 4.4
2 | Nc1nccc(-c2cn(Cc3ccc(Cl)s3)c3ccccc23)n1 | inactive | > 74 µM |  | > 74 µM |  | > 74 µM | inactive |  | Not Active | inactive | inactive |  | inactive | inactive | 13 µM | 14.7 µM (≈ 5.01 µg/mL) | 14.7 µM (≈ 5.01 µg/mL) |  | 41.3 µM | Not Active | IC50 (Plasmodium falciparum [2]): Not Active; IC50 (Plasmodium falciparum [3]): Not Active; IC90 (Leishmania donovani): inactive
3 | CCOc1ccccc1C(=O)n1cc(-c2ccnc(N)n2)c2ccccc21 | inactive | > 70 µM |  | > 70 µM |  | > 70 µM | inactive |  | Not Active | inactive | inactive |  | inactive | inactive | 45.6 µM | inactive | inactive |  | 47.4 µM | Not Active | IC50 (Plasmodium falciparum [2]): Not Active; IC50 (Plasmodium falciparum [3]): Not Active
4 | CN1CCN(c2ncc(-c3ccccc3)c(-c3c[nH]c4ccccc34)n2)CC1 |  |  |  |  |  |  |  |  |  |  |  |  |  |  |  |  |  |  |  |  | MIC (Plasmodium falciparum [11]): 3 µM (≈ 1.11 µg/mL)
5 | Nc1nccc(-c2c[nH]c3ccc(Br)cc23)n1 [MERIDIANIN C] | inactive | > 87 µM | > 7.4 | > 87 µM | 14.4 µM | > 87 µM | inactive | 11.7 µM | Not Active | inactive | inactive | > 6 | inactive | inactive | 56.5 µM | inactive | inactive | > 6 | 64.9 µM | Not Active | selectivity ratio [8]: > 7.4; selectivity ratio [9]: > 7.4; selectivity ratio [10]: > 6
6 | Nc1nccc(-c2cn(C(=O)c3ccccc3)c3ccc(Br)cc23)n1 | inactive | > 64 µM | > 16 | > 64 µM | 7.45 µM | > 64 µM | inactive | 3.98 µM | Not Active | inactive | inactive | > 8.5 | inactive | inactive | 24.3 µM | inactive | inactive | > 8.5 | 105 µM | Not Active | selectivity ratio [8]: > 16; selectivity ratio [9]: > 16; selectivity ratio [10]: > 8.5

Reference: ChEMBL document CHEMBL3132801, “Meridianin G and its analogs as antimalarial agents” (Medchemcomm, 2013)
